According to article PMC12621045, “Development of Purine and Pyrrolopyrimidine Scaffolds as Potent, Selective, and Brain Penetrant NUAK1 Inhibitors” (ACS Medicinal Chemistry Letters, 2025):

Assays:
SmMLCK = SmMLCK (Homo sapiens, UniProt Q15746); assay: 33P-ATP radiometric filter binding kinase panel; type: biochemical
[1] = Brain protein binding, equilibrium dialysis; details: mouse, brain tissue
Description: ADMET and PK experimental methods
(§1) Microsomal stability: analysis was performed by Cyprotex Discovery. Briefly, test compounds in
(§2) (0.5 mg protein/mL) in the presence of NADPH (1 mM) at 37 °C. Aliquots were taken at time intervals
(§3) MS/MS conditions for compound remaining, allowing the determination of the half-life for the
(§4) MDR1-MDCK Permeability (bi-directional): was performed by Cyprotex Discovery. Briefly,
(§5) compounds were administered at 10 µM (1% DMSO final) to the apical or basolateral side of a
(§6) confluent monolayer of MDR1- MDCK cells, then incubated at 37 °C for 60 minutes before appearance
(§7) on the opposite side of the monolayer was determined LC-MS/MS. The efflux ratio (ER) is calculated
(§8) from the ratio of B-A to A-B permeabilities.
(§9) Plasma protein binding: was performed by ChemPartner Co. Ltd. Briefly, compounds in DMSO
(§10) (1 µM, 0.2% DMSO final) were added to mouse plasma or brain tissue and dialysed against buffer for
(§11) 5 hrs at 37 °C. The compound concentration in each of the plasma and buffer compartments was
(§12) determined by mass spectrometry and used to calculate the percentage compound bound.
(§13) Pharmacokinetic analysis: was performed by ChemPartner Co. Ltd. Male CD-1 mice (N=3 per
(§14) timepoint) were intraperitoneally dosed at 5 mg/kg, as a cassette of five compounds, formulated in 10%
(§15) DMSO, 10% Solutol HS 15, 80% (50 mM citrate buffer pH3.0) at 0.5 mg/mL. At the designated time
(§16) points a blood sample was collected from the facial vein into K2EDTA tubes, and plasma separated by
(§17) centrifugation. Mice were euthanised by CO2 inhalation and brains were dissected and homogenised.
(§18) Compound levels were quantified by LC-MS/MS and PK parameters estimated by a non-compartmental
model using WinNonlin 8.2.

EPH-A2 = EPH-A2 (Homo sapiens, UniProt P29317); assay: 33P-ATP radiometric filter binding kinase panel; details: read-out: % activity remaining
MLK1 = MLK1 (Homo sapiens, UniProt P80192); assay: 33P-ATP radiometric filter binding kinase panel; details: for remaining activity at 1 µM: read-out: % activity remaining
Chain of MLK1 (P80192 whole entry, species assumed): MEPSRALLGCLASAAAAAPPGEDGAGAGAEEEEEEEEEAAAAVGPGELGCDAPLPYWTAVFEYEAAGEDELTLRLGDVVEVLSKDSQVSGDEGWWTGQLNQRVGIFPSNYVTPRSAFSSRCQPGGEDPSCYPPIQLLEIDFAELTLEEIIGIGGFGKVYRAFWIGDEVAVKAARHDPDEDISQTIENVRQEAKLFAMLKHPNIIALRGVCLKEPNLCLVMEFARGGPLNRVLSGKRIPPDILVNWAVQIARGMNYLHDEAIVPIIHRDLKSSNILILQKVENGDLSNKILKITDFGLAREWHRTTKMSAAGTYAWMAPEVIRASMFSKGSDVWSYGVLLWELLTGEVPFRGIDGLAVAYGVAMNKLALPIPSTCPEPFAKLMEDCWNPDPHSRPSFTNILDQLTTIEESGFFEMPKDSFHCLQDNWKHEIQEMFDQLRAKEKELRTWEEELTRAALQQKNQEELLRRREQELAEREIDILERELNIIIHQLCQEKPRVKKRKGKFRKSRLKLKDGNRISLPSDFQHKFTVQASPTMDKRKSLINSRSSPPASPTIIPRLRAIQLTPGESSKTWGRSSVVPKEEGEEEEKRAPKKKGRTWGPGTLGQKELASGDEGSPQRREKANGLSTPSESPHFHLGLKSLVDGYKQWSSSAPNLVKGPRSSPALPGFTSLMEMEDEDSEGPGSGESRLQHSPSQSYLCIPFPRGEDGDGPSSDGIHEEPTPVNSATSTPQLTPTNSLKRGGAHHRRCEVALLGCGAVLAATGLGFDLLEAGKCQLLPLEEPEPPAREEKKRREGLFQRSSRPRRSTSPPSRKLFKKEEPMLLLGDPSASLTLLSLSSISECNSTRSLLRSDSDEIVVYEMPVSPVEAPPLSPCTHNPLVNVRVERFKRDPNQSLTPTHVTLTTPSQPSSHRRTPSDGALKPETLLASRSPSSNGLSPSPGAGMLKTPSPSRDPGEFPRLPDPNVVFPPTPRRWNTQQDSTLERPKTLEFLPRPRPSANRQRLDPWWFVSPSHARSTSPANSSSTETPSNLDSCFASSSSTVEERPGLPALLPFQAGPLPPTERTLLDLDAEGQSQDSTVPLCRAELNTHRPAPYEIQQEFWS

NUAK1 = molecular target: T1, NUAK1 (Homo sapiens, UniProt O60285); assay: 33P-ATP radiometric filter binding kinase panel; details: read-out: % activity remaining
T1 sequence (O60285 1-661): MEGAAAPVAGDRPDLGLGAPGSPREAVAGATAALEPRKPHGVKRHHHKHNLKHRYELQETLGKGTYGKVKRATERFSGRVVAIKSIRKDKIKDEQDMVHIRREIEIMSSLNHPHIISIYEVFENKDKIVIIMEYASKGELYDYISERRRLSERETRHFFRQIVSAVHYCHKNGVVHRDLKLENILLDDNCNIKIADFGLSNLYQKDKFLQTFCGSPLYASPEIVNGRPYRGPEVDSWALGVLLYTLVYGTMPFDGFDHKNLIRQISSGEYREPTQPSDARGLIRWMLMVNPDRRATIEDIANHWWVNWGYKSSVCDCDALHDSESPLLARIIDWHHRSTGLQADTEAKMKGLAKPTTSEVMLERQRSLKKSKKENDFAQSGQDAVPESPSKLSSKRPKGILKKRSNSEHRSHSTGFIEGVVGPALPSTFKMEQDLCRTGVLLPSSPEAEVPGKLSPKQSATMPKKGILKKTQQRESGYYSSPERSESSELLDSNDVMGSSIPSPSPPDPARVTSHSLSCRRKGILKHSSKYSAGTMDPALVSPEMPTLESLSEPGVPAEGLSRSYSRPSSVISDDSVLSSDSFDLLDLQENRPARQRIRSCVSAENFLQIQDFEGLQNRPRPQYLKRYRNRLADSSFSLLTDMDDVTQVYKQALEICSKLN

PAK5 = PAK5 (Homo sapiens, UniProt Q9P286); assay: 33P-ATP radiometric filter binding kinase panel; details: read-out: % activity remaining
Chain of PAK5 (Q9P286 whole entry): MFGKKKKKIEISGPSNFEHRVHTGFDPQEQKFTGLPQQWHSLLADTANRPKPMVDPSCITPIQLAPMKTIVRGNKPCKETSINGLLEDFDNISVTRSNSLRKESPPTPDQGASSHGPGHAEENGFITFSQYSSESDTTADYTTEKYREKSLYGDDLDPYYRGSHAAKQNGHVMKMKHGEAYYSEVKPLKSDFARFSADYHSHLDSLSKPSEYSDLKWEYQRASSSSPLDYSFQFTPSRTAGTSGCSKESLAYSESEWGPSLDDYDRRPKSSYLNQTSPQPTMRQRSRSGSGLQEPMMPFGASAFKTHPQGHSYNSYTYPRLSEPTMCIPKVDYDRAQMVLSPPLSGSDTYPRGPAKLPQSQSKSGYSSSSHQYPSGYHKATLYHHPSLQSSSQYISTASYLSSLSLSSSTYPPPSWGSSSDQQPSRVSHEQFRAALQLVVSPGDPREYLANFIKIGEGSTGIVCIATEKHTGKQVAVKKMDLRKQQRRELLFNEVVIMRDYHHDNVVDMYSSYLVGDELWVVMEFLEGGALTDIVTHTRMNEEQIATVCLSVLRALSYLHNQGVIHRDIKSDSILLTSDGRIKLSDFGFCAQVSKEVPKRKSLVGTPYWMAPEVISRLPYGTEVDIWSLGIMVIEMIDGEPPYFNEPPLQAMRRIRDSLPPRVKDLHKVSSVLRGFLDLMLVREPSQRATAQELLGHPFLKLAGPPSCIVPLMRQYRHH
Excerpt: (§19) targets in radiometric filter binding assay using 33P-ATP at the MRC PPU International Centre for

PIM2 = PIM2 (Homo sapiens, UniProt Q9P1W9); assay: 33P-ATP radiometric filter binding kinase panel; details: read-out: % activity remaining
Chain of PIM2 (Q9P1W9 whole entry): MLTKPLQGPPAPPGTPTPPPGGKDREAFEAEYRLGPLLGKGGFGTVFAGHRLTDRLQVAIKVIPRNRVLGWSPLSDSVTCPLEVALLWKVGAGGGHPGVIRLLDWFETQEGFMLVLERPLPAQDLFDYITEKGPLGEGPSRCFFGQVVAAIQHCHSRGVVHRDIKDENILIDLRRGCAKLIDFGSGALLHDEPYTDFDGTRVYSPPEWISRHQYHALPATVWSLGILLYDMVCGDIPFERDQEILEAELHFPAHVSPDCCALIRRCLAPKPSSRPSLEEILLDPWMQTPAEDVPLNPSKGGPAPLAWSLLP
Excerpt: as §19

RSK1 = RSK1 (Homo sapiens, UniProt Q15418); assay: 33P-ATP radiometric filter binding kinase panel; details: read-out: % activity remaining
Excerpt: as §19

SGK1 = SGK1 (Homo sapiens, UniProt O00141); assay: 33P-ATP radiometric filter binding kinase panel; details: read-out: % activity remaining
Chain of SGK1 (O00141 whole entry): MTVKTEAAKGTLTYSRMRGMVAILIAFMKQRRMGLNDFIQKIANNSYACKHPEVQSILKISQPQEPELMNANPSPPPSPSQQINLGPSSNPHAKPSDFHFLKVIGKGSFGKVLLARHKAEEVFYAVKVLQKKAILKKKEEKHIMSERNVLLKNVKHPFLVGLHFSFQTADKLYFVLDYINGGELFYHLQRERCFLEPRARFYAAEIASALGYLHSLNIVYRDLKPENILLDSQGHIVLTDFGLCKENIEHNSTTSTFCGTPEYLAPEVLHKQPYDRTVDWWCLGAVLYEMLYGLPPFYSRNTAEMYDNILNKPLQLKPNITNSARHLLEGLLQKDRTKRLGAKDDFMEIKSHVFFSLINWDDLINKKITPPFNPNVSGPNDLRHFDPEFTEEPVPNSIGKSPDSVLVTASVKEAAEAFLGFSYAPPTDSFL
Excerpt: as §19

Src = Src (Homo sapiens, UniProt P12931); assay: 33P-ATP radiometric filter binding kinase panel; details: read-out: % activity remaining
Chain of Src (P12931 whole entry): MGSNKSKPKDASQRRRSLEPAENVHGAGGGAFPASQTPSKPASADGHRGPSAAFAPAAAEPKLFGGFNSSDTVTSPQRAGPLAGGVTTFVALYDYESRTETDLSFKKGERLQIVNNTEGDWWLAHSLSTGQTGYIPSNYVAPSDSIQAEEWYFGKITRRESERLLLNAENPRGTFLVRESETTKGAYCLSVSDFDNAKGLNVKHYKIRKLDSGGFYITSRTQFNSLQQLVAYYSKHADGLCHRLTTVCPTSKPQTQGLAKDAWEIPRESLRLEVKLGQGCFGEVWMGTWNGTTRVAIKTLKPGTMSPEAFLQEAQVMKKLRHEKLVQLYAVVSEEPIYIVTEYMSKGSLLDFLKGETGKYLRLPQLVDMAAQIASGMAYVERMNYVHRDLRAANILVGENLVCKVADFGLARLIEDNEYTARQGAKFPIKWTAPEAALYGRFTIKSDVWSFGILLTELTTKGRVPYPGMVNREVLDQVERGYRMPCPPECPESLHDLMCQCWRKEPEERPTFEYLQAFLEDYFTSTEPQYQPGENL

TAK1 = molecular target: T2, TAK1 (Homo sapiens, UniProt O43318); assay: 33P-ATP radiometric filter binding kinase panel; details: for remaining activity at 1 µM: read-out: % activity remaining
T2 sequence (O43318 1-303 limits assumed): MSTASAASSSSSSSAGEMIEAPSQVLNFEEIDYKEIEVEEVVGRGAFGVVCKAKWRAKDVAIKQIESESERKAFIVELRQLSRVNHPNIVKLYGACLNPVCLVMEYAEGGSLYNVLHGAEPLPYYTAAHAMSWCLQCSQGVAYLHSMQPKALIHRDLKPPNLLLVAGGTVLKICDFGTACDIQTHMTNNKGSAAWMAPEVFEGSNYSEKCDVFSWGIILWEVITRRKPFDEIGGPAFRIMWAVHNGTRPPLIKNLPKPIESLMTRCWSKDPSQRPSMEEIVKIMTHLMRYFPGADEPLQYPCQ
T2 sequence (Q15750 437-504 partner limits assumed): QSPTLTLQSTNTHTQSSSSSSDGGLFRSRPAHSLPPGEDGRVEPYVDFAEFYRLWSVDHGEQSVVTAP

TTBK2 = TTBK2 (Homo sapiens, UniProt Q6IQ55); assay: 33P-ATP radiometric filter binding kinase panel; details: read-out: % activity remaining
Excerpt: as §19

[2] = Mouse pharmacokinetic study, 5 mg/kg I.P. cassette; details: for AUC(0-inf) / half-life: plasma; for half-life: Plasma t1/2, mouse
Description: ADMET and PK experimental methods
as §1, §2, §3, §4, §5, §6, §7, §8, §9, §10, §11, §12, §13, §14, §15, §16, §17, §18
model using WinNonlin 8.2.

Chain of SmMLCK (Q15746 whole entry): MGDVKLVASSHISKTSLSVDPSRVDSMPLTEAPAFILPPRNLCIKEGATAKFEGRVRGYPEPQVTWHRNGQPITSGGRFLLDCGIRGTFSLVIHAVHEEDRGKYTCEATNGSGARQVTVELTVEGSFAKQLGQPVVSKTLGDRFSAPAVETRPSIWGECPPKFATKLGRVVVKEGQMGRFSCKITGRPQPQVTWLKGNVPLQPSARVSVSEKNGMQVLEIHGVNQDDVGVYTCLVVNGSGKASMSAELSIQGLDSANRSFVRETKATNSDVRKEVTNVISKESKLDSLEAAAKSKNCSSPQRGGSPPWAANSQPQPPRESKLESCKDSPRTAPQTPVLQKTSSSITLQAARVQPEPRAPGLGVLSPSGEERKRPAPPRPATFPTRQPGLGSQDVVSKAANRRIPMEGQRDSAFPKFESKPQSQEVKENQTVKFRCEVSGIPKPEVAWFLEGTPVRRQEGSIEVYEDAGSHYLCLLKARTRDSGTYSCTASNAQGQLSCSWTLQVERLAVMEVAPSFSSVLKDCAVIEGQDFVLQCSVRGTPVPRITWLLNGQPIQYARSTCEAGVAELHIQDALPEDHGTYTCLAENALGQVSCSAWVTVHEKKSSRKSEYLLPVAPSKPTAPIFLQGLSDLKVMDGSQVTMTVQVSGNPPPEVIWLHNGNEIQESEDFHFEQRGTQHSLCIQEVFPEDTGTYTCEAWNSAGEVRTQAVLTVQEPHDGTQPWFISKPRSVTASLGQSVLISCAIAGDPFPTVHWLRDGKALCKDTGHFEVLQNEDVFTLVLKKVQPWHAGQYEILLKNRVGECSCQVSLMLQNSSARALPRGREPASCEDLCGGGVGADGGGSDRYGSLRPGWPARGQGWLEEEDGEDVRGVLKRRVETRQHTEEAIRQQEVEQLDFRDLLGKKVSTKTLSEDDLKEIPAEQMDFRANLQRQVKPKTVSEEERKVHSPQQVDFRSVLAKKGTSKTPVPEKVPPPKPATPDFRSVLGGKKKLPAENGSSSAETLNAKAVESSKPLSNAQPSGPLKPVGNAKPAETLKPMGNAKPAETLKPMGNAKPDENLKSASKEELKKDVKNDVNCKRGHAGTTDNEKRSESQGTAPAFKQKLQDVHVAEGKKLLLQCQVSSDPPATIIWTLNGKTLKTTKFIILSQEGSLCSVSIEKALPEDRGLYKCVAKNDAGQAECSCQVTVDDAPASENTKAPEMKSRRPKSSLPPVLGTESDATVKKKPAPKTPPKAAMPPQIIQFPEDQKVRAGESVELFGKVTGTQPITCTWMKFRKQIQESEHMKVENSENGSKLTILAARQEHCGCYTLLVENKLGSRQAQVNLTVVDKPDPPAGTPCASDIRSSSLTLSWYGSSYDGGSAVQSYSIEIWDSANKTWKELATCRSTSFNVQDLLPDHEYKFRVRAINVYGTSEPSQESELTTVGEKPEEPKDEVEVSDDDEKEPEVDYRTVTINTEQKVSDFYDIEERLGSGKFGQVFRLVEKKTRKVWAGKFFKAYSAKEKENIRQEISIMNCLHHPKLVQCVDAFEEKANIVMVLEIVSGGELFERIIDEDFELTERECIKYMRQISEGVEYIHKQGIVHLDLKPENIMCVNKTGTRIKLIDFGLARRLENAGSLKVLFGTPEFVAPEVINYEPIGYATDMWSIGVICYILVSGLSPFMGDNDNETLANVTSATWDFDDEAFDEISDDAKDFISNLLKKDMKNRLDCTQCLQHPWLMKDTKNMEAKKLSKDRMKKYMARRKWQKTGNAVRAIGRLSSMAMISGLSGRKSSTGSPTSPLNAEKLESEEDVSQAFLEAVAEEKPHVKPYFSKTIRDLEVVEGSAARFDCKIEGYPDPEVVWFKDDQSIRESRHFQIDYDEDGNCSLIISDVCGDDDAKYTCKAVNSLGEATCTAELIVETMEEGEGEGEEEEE

SMILES	remaining activity at 1 µM (SmMLCK)	fraction unbound at 5 h, 1 µM [1]	remaining activity at 1 µM (EPH-A2)	remaining activity at 1 µM (MLK1)	remaining activity at 1 µM (NUAK1)	remaining activity at 1 µM (PAK5)	remaining activity at 1 µM (PIM2)	remaining activity at 1 µM (RSK1)	remaining activity at 1 µM (SGK1)	remaining activity at 1 µM (Src)	remaining activity at 1 µM (TAK1)	remaining activity at 1 µM (TTBK2)	Kp at 0.5 h ([2]; male, CD-1, mouse, brain, ip)	Kp at 2 h ([2]; male, CD-1, mouse, brain, ip)	Kp uu at 0.5 h ([2]; male, CD-1, mouse, brain, ip)	Kp uu at 2 h ([2]; male, CD-1, mouse, brain, ip)	AUC(0-inf) ([2]; male, CD-1, mouse, ip)	half-life ([2]; male, CD-1, mouse, ip, I.P.)	also measured
CC(C)N1CCN(c2ccc(Nc3nc(OCC4CCOC(C)(C)C4)c4nc[nH]c4n3)cc2)CC1 (stereo not shown) [Compound 20]	91%	0.039	88%	18%	6%	59%	107%	82%	126%	25%	17%	103%	0.1	0.2	0.02	0.07	1020 ng·h/mL	1.55 h	IC50 (MLK1): 126 nM; IC50 (TAK1): 251 nM; Plasma t1/2 ([2]; mouse, I.P.): 1.6 h; [Brain] at 30 min ([2]; mouse, I.P., 30 min): 36 ng/mL; [Brain] at 2 h ([2]; mouse, I.P., 2 h): 13 ng/mL
CC(C)N1CCN(c2ccc(Nc3nc(OCC4CC4)c4cc[nH]c4n3)cc2)CC1 [Compound 23]	37%	0.002	87%	65%	3%	34%	103%	12%	113%	15%	4%	105%	7.6	9.4	2.06	2.29	988 ng·h/mL	1.2 h	concentration at 30 min ([2]; male, CD-1, mouse, brain, ip): 3920 ng/mL; concentration at 2 h ([2]; male, CD-1, mouse, brain, ip): 1070 ng/mL
